Consider nine compounds from article PMC10649417, “Inhibitory Activity of 4-Benzylidene Oxazolones Derivatives of Cinnamic Acid on Human Acetylcholinesterase and Cognitive Improvements in a Mouse Model” (Molecules, 2023).

The structures appear in SMILES notation.

In general, Ki refers to the equilibrium dissociation constant of an inhibitor or competing ligand from its target. In general, IC50 refers to the concentration needed to halve the response being measured. As a reminder, the inhibition is how much of the control response was suppressed. Read a low inhibition as a response near the control.

Assay [1] addresses T1, human acetylcholinesterase (hAChE) (Homo sapiens, UniProt P22303).
T1 construct: purchased Sigma Aldrich; host or cells: HEK 93 cells (so in the source)
In words: Kinetic determinations of reversible hAChE inhibition (Ellman assay). The format is biochemical. To be noted: for Ki: room temperature, 0.1 M PBS pH 7.4, n = 3, read-out: Inhibition Constant (Ki); for Parameter α: α of Vmax and Km referred to control AChE activity, mixed model inhibition; for decrease in inhibition potency compared to (1): from Ki values. The method, then: (§1) Recombinant hAChE expressed in HEK 93 cells, a lyophilized powder (Sigma Aldrich, Mexico), was dissolved in TBSA/sodium azide 0.02% and then was stored in aliquots at −20 °C. Each aliquot was diluted as required in a solution of PBS 0.1M pH 7.4/BSA 0.01% on the day of the experiment.
Reversible inhibition assays from all hAChE were measured using a spectrophotometric Ellman assay at room temperature in 0.1 M PBS pH 7.4, containing 0.01% BSA, containing DTNB 300 µM as a chromogen. The equilibrium dissociation constant (Ki) of the hAChE–oxazolone conjugate was determined using different substrate concentrations (s) ranging from 0.05 to 0.200 mM, and at least four different concentrations of the oxazolones (i) were applied at a given substrate concentration in order to obtain hAChE inhibition between 20% and 80% to establish the affinity for each hAChE–oxazolone conjugate combination. The enzyme activity (ν) was plotted versus the substrate concentration [S] analyzed by non-linear regression analysis (Michaelis–Menten plot); data were transformed into a double reciprocal Lineweaver–Burk plot. Plots 1/ν versus 1/[S] were generated by plotting the slope versus the oxazolone concentration and the ordinate versus the oxazolone concentration of the primary plot. The processing of experimental data to define the oxazolones affinity was performed by a linear regression analysis where the y-intercept determines the enzyme-inhibitor dissociation constants (Ki), while the x-intercept determines the enzyme-substrate dissociation constant (Ks). The equation was used assuming that the substrate, due to low substrate concentrations used in experiments, binds only to the catalytic site, while the inhibitor can bind to both sites, catalytic and peripheral. To determine the mechanism of inhibition, we used the dose-response curves fitted using the Mixed Model Inhibition by the constants Vmax and Km calculated from Michaelis–Menten kinetics that includes competitive, uncompetitive, and non-competitive inhibition as special cases. The GraphPad Prims 6.0 software, San Diego, CA, USA was used to calculate the kinetics. All data are shown as means of n = 3.
A general note: DTNB colorimetry detects thiols as they appear.

The target in assay [2] is T1, human acetylcholinesterase (hAChE). The experiment in a line: Estimation of IC50 values on hAChE (Ellman, 96-microwell plates). The class given is biochemical. To be noted: room temperature, 0.1 M PBS pH 7.4; n = 3. The procedure:
as §1
The concentrations of test compounds that inhibited the hydrolysis of substrates by 50% (IC50) were determined by monitoring the effect of various concentrations of oxazolones in the assays on the inhibition values. To study the potency, the oxazolones with an inhibition greater than 50% were selected, taken from the screening test results at 300 μM. All the inhibition studies were performed at room temperature in 96-microwell plates using Multiskan FC 5111900 (Lab Systems, CA, USA). The DTNB was used for the measurement of hAChE activity. In total, 174 μL in 0.1 M PBS pH 7.4/0.01% BSA, containing 300 μM DTNB final concentration, 2 μL of test-compound solution, and 2 μL of hAChE solution (0.2 μM) were mixed. The reaction was then initiated by adding 2 μL acetylthiocholine (10 mM), and the plate was read immediately. The formation of yellow 2-nitro-5-tiobenzoico acid due to the reaction of DTNB with thiocholine monitored the enzymatic hydrolysis of acetylthiocholine. Measures were at a wavelength of 412 nm at room temperature after 1 min. The IC50 values were then calculated using the GraphPad Prism 6.0 software (San Diego, CA, USA). All data are shown as means of n = 3.

Assay [3] has the same target. The experiment in a line: hAChE inhibitory screening (Ellman method). To be noted: n = 3. The format is biochemical. The method, then:
as §1
The spectrophotometric method of Ellman was used to evaluate the inhibition of hAChE. The assay was carried out by double beam UV-Vis 6705 Janway spectrophotometer at room temperature, using optical polystyrene cuvettes of 1.0 cm path length (10 × 10 × 45 mm, 340–800 nm optical transparency). Each test compound was dissolved in ethanol. […] Aliquots of 970 μL of PBS 0.1 M pH 7.4/BSA 0.01% containing DTNB (300 μM) and 10 μL of hAChE (0.2 μM) were placed in the polystyrene cuvette. An amount of 10 μL of a stock solution to obtain a final concentration of 100 or 300 μM of the tested compound was added. In total, 10 μL of an aqueous solution of acetylthiocoline 10 mM was added to start the reaction. The absorbance of the sample by the generation of the yellow 5-nitro-2-tio-benzoic anion was recorded at 412 nm at room temperature after 1 min. As a control, an identical enzyme solution without the inhibitor was processed following the same protocol to determine 100% of enzyme activity. […] Each experiment was repeated at least in triplicate. The capacity of each compound to inhibit hAChE was expressed as percent inhibition calculated using Equation (1):(1) Inhibition(%)=Ac−Ai×100/Ac where Ac and Ai represent the change in the absorbance in the […], respectively.

In assay [4] the test system is male ICR mice. In words: Y-maze spontaneous alternation test. The class given is in vivo, mouse. To be noted: 1 h before, 8 min in Y-maze, n = 5, mean ± SE. The procedure: (§2) The experimental protocols were submitted and approved by the Bioethics Committee of the Faculty of Medicine and Psychology, Autonomous University of Baja California University, Tijuana, México (Record No. 666/2021-2). To perform the in vivo cognitive test experiments, male ICR mice eight weeks of age were used. The animals were housed with access to water and food under a 12 h light and dark cycle, with controlled temperature and humidity.
(§3) To carry out the cognition experiments, we used the methods previously described in detail by Arunrungvichian K., et al., 2015, in which they produced pharmacological amnesia using scopolamine in a mouse model. […] All compounds were administered by intraperitoneal injection in a volume of 5 mL/kg. Saline solution was used for the vehicle group (SH).

For assay [5], the system named is male ICR mice. In words: Spatial working memory, modified Y-maze, scopolamine-induced amnesia. The class given is in vivo, mouse. To be noted: for Percentage of unfamiliar arm exploration: n = 5. The procedure: as §2, §3
We use the maze used in the spontaneous alternation tests except for the use of a partition to close one of three arms. Here, mice, throughout multiple arm entries, should tend to enter a less recently visited arm or an unfamiliar arm of the maze. The mice were injected with compound 1, SH, DZ, and scopolamine (1 h and 30 min) before starting experiments. Each mouse was placed at the end of one arm and allowed to move freely for 5 min to get familiar with the two open arms. All arms were opened after 30 min of resting to allow entering in all three arms. An entry was counted if mice accessed an arm at least 10 cm. The percentage of unfamiliar arm exploration was calculated as Equation (2):(2) Percentage of unfamiliar arm exploration=number of unfamiliar arm entry/number of all arms entry×100

The subject of assay [6] is male ICR mice. In words: Novel Object Recognition (NOR) test, scopolamine-induced amnesia. The class given is in vivo, mouse. To be noted: for Discrimination Index (DI): scopolamine-treated mice, n = 5, mean ± SE; for effect on episodic short-term memory (DI vs amnesic group): donepezil 1 mg/kg, oxazolone (1) 5, 10, 25 and 100 μmol/kg, i.p. The procedure: as §2, §3
We employed the Novel Object Recognition Test (NOR) to assess recognition memory, a valuable tool for evaluating cognitive impairment in rodents and testing the impact of new drugs on cognition. This test involves an open-field arena containing two distinct types of objects, each with unique colors and shapes for easy discrimination. The basis of this test lies in rodents’ natural inclination to spend more time exploring a new object compared to a familiar one, leading to the calculation of a Discrimination Index (DI).
The testing procedure unfolded as follows: On the first day, the mice were allowed to freely explore the open-field apparatus for 5 min to become accustomed to the environment. On the second day, oxazolone 1, DZ, and SH were administered 1 h prior, while SC was given 30 min before the acquisition trial. During this trial, the mice were introduced to the apparatus with two identical objects. After spending 10 min in their cages, one of the objects was replaced with a new one, and the mice were granted 5 min to explore these objects during the retention trial. We meticulously recorded the time the mice spent exploring each object, defined as when their noses approached within 3 cm or when they made contact with the objects. The DI was calculated as (TN – TF)/(TN + TF), with TN representing the exploration time of the new object and TF indicating the exploration time of the familiar object.

T1 sequence (P22303 32-614): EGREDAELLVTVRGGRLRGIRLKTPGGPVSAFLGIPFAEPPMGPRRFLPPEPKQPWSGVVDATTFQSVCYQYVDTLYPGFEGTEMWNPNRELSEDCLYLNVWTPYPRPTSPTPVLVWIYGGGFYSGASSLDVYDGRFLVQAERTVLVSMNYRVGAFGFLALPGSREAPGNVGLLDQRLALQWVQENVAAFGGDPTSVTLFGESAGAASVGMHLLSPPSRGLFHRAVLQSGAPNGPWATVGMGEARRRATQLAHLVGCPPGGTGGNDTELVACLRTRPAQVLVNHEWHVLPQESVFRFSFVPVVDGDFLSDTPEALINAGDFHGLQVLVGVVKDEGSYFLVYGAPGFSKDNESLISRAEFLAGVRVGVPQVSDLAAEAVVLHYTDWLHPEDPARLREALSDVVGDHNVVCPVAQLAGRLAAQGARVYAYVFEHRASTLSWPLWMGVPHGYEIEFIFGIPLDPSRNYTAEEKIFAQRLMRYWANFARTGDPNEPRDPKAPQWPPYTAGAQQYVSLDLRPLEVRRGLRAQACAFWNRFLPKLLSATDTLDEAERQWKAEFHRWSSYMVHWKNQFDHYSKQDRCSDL

As to `Cc1ccc(/C=C2N=C(/C=C/c3ccccc3)OC\2=O)cc1` [Oxazolone 2, 4-((Z)-4-methylbenzylidene)-2-((E)-styryl)oxazol-5(4H)-one], in assay [1], the “Mode of Inhibition” value is “Competitive”, the Ki was 108 ± 7.77 µM and the “Parameter α” value worked out at 4.98. Also, in assay [2], the IC50 is 95.5 ± 1.47 µM.
Take `O=C1OC(/C=C/c2ccccc2)=NC/1=C\c1ccc(Cl)cc1` [Oxazolone 3, 4-((Z)-4-chlorobenzylidene)-2-((E)-styryl)oxazol-5(4H)-one]: the “Inhibition (%) of hAChE” value in assay [3] (100 μM compound) was “inactive”. Further, in assay [3] (300 μM compound), the “Inhibition (%) of hAChE” value was “moderate inhibitory activity”. In assay [1], the “Mode of Inhibition” value is on record as “Competitive”, the Ki came out at 98.4 ± 24 µM and the “Parameter α” value is recorded as more than 1000. Moreover, the IC50 in assay [2] is 89.3 ± 22.3 µM.
In the case of `CC(=O)Oc1cccc(/C=C2N=C(/C=C/c3ccccc3)OC\2=O)c1O` [Oxazolone 7, 2-hydroxy-3-((Z)-(5-oxo-2-((E)-styryl)oxazol-4(5H)-ylidene)methyl)phenyl acetate], in assay [1], the “Mode of Inhibition” value is listed as “Competitive”, the “decrease in inhibition potency compared to (1)” value is recorded as “roughly 33 fold”, the Ki is 67 ± 19 µM and the “Parameter α” value came to 18.27. Further, in assay [2], the IC50 was 37.1 ± 1.61 µM.
The matching figures for `CC(=O)Oc1ccc(/C=C2N=C(/C=C/c3ccccc3)OC\2=O)cc1` [Oxazolone 6, 4-((Z)-(5-oxo-2-((E)-styryl)oxazol-4(5H)-ylidene)methyl)phenyl acetate]: “uncompetitive”, “approximately 100 fold”, 198 ± 49.5 µM, 0.006 and 246 ± 51.2 µM.
`O=C1OC(/C=C/c2ccccc2)=NC/1=C\c1ccccc1` [Oxazolone 1, 4-((Z)-benzylidene)-2-((E)-styryl)oxazol-5(4H)-one] showed an inhibition at 100 µM in assay [3] (100 μM compound) of 61.3%. Further, the “Mode of Inhibition” value in assay [1] is “Competitive”. For the same compound, the Ki in assay [1] worked out at 2.08 ± 0.36 µM. In assay [1], the “Parameter α” value came to 21.84. In assay [2], the IC50 is 9.2 ± 2.3 µM. The “locomotor activity, number of arm entries” value in the assay with male ICR mice [4] (5 μmol/kg i.p.) came out at 31.8 ± 2.1 entries; with male ICR mice [4] (50 μmol/kg i.p.), 34 ± 2.3 entries. Further, the “Percentage of unfamiliar arm exploration” value in the assay with male ICR mice [5] (25 μmol/kg i.p., scopolamine-treated mice, mean ± SE) is recorded as 37.83 ± 0.7%; in the assay on male ICR mice [5] (100 μmol/kg i.p., scopolamine-treated mice, mean ± SE) it was 48.30 ± 5.4%. Moreover, the “Discrimination Index (DI)” value in the assay with male ICR mice [6] (10 μmol/kg i.p.) was 0.317 ± 0.051; in the assay with male ICR mice [6] (100 μmol/kg i.p.) it was 0.360 ± 0.056. For the same compound, the “effect on episodic short-term memory (DI vs amnesic group)” value in the assay on male ICR mice [6] is “substantially improved episodic short-term memory”.
As for `CN1[C@@H]2C[C@@H](OC(=O)[C@H](CO)c3ccccc3)C[C@H]1[C@@H]1O[C@@H]12` [scopolamine, reference compound], the “Percentage of unfamiliar arm exploration” value in the assay with male ICR mice [5] (scopolamine group, 1 mg/kg i.p. 30 min before) was determined as 28.58 ± 5%.
Consider `CC(=O)Oc1cccc(/C=C2N=C(/C=C/c3ccccc3)OC\2=O)c1` [Oxazolone 5, 3-((Z)-(5-oxo-2-((E)-styryl)oxazol-4(5H)-ylidene)methyl)phenyl acetate], for which, in assay [1], the “Mode of Inhibition” value is “Non-competitive”, the Ki is 183 ± 46 µM and the “Parameter α” value stood at 1. The IC50 in assay [2] is 204 ± 39.7 µM.
As for `COc1cc2c(cc1OC)C(=O)C(CC1CCN(Cc3ccccc3)CC1)C2` (centres unmarked) [Donepezil, donepezil, reference compound], in the assay on male ICR mice [5] (1 mg/kg i.p., p < 0.001 vs scopolamine group), the “effect on cognitive decline induced by scopolamine (novel arm exploration)” value was “notably reversed”. The “effect on episodic short-term memory (DI vs amnesic group)” value with male ICR mice [6] was “substantially improved episodic short-term memory”.
Turning to `COc1ccc(/C=C2N=C(/C=C/c3ccccc3)OC\2=O)cc1` [Oxazolone 4, 4-((Z)-4-methoxybenzylidene)-2-((E)-styryl)oxazol-5(4H)-one], in assay [3] (100 μM compound), the inhibition at 100 µM was found to be 49%. Moreover, in assay [1], the “Mode of Inhibition” value is given as “Competitive”, the Ki amounted to 157 ± 46 µM and the “Parameter α” value was 4.16. The IC50 in assay [2] is 137 ± 34.2 µM.
